These results are taken from the NIST ThermoML archive (doi:10.1021/acs.jced.9b00726).

Molecules are shown by their SMILES. Several values for one entry are separate records, joined by “and”; a condition that tells them apart may be missing. Equal values may be shown once. ± gives the expanded uncertainty stated by the source.

This data set can be described thus: activity coefficient (dimensionless); of the first substance listed, at infinite dilution; xn = mol fraction of the nth substance listed. To be noted: 100 kPa, Liquid, inert gas stripping, x1 = 0.

Consider `CCCCC(C)=O` [2-hexanone] + O, for which the activity coefficient runs as follows: (278.15 K) 257 ± 33; (288.15 K) 331 ± 34; (298.15 K) 384 ± 35; (308.15 K) 422 ± 39; (318.15 K) 471 ± 61; (328.15 K) 456 ± 42.
As for `CCC(=O)C(C)C` [2-methyl-3-pentanone] + O, the activity coefficient was determined as 269 ± 58 (278.15 K); 329 ± 71 (288.15 K); 391 ± 51 (298.15 K); 442 ± 58 (308.15 K); 467 ± 61 (318.15 K); 491 ± 64 (328.15 K).
Turning to `CC(=O)C(C)(C)C` [3,3-dimethyl-2-butanone] + O, the activity coefficient is 217 ± 20 (278.15 K); 272 ± 25 (288.15 K); 321 ± 29 (298.15 K); 345 ± 32 (308.15 K); 370 ± 34 (318.15 K); 379 ± 35 (328.15 K).
Regarding `CCCC(=O)CC` [3-hexanone] + O, the activity coefficient reads like this: (278.15 K) 260 ± 34; (288.15 K) 340 ± 44; (298.15 K) 418 ± 43; (308.15 K) 458 ± 42; (319.15 K) 515 ± 47; (328.15 K) 524 ± 48.
`CC(=O)C(C)C` [3-methyl-2-butanone] + O: the activity coefficient is 64.4 ± 8.2 (278.15 K); 72.9 ± 7.2 (288.15 K); 91 ± 8.1 (298.15 K); 102 ± 9.1 (308.15 K); 112 ± 9.8 (318.15 K); 119 ± 10 (328.15 K).
As for `CCC(C)C(C)=O` (stereo unspecified) [3-methyl-2-pentanone] + O, the activity coefficient is 216 ± 47 (278.15 K); 268 ± 58 (288.15 K); 296 ± 48 (298.15 K); 332 ± 43 (308.15 K); 358 ± 46 (318.15 K); 380 ± 49 (328.15 K).
Regarding `CC(=O)CC(C)C` [4-methylpentan-2-one] + O, the activity coefficient was 239 ± 24 (278.15 K); 277 and 287 (288.15 K); 327 ± 30 (298.15 K); 370 ± 34 (308.15 K); 405 ± 37 (318.15 K); 410 ± 38 (328.15 K).
Regarding `CCCC(C)=O` [pentan-2-one] + O, the activity coefficient by setting is: (273.17 K) 61.4 ± 6.1; (278.15 K) 67.2 ± 6.7; (288.15 K) 78.7 ± 7; (298.15 K) 95.9 ± 8.6; (308.15 K) 107 ± 9.4; (318.15 K) 121 ± 11. Further, the activity coefficient reads like this: (328.15 K) 129 ± 11; (333.15 K) 130 ± 11.
On to `CCC(=O)CC` [pentan-3-one] + O, for which the activity coefficient was 67.9 ± 8.7 (273.35 K); 86.9 ± 8.7 (283.15 K); 92.8 ± 8.3 (288.15 K); 101 ± 9 (293.15 K); 114 and 112 (298.15 K); 118 ± 11 (303.15 K). In addition, the activity coefficient (308.15 K) came to 129 ± 12; the activity coefficient (313.15 K) came to 130 ± 12; the activity coefficient (318.15 K) was 137 and 133; the activity coefficient (323.15 K) was found to be 142 ± 13; the activity coefficient (333.15 K) is 148 ± 13.
